From US20160311788A1, “Antifouling Compounds And Use Thereof” (National University of Singapore, priority 2008, published 2016)
≈ marks a conversion by molar mass, not a printed value. Read-outs that look alike come from different tables or passages of the source.

Key:
[1] = test system: marine bacteria strain S1; assay: disc inhibition assay, strain S1; assay type: cell-based, Rhodovulum iodosum; settings: strain 1, 50 μg of compound per disc
In short: (§1)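 Compounds were applied at 50 μg per 6 mm disc (from 2 mg/ml DMSO stock; DMSO control) onto lawns of Singapore coastal fouling bacteria on marine agar. After overnight incubation in the dark at 35 °C, inhibition-zone diameters were caliper-measured; mean of two replicates.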

[2] = test system: marine bacteria strain S9; assay: disc inhibition assay, strain S9; assay type: cell-based, Bacillus algicola; settings: for zone of inhibition at 50 µg/disc: Guptibacillus algicola, S9, 24 h
In short: as §1

[3] = test system: marine bacteria strain S16; assay: disc inhibition assay, strain S16; assay type: cell-based, Pseudoalteromonas piscicida; settings: strain 16, 50 μg of compound per disc
In short: as §1

[4] = test system: marine bacteria strain S4; assay: disc inhibition assay, strain S4; assay type: cell-based, Bacillus algicola; settings: for zone of inhibition: strain 4, 50 μg of compound per disc
In short: as §1

[5] = test system: marine bacteria strain S30; assay: disc inhibition assay, strain S30; assay type: cell-based, Bacillus borophilicus; settings: for zone of inhibition: strain 30, 50 μg of compound per disc
In short: as §1

[6] = test system: marine bacteria strain S17; assay: disc inhibition assay, strain S17; assay type: cell-based, Gordonia terrae; settings: for zone of inhibition: strain 17, 50 μg of compound per disc
In short: as §1

[7] = test system: marine bacteria strain S29; assay: disc inhibition assay, strain S29; assay type: cell-based, Bacillus hwajinpoensis; settings: for zone of inhibition at 50 µg/disc: Guptibacillus hwajinpoensis, S29, 24 h
In short: as §1

[8] = test system: Stage II nauplii of Balanus amphitrite; assay: barnacle toxicity assay; assay type: in vivo; settings: Table 3(a); concentration that caused 50% mortality, 22 to 24 hours, Stage II nauplii
Protocol: (§2) Pure compounds were suspended in DMSO and sonicated to obtain a stock solution of 50 mg ml^−1 in DMSO. This stock solution is stored at −20° C. in 4 ml amber screw cap vials. For the bioassays, a small volume of stock solution was added to 1 μm filtered seawater in a glass scintillation vial. This suspension was then sonicated around 10 minutes. Serial dilutions were generated to the required range of concentrations. Serial dilution of the equivalent amounts of DMSO in seawater was used as the control.
(§3) The barnacle bioassay method used follows from the method first introduced by Rittschof et al. (1992), and subsequently by other authors (Willemsen et al., 1998). This method is now standard practice for many antifouling screening of novel compounds.
Toxicity assays were modified from Rittschof et al. (1992). Stage II naupliar larvae used in tests were obtained from Balanus amphitrite adults collected from inter-tidal rock walls at Kranji mangrove, Singapore. Larvae were collected from a container of adults by attraction to a point source of light and transferred to 500 ml of fresh seawater. Next, larvae were re-concentrated with a fiber optic light and added to assays.
Duplicate assays were conducted in 2 ml glass vials (La Pha Pack® PN 11-14-0544) in 1 ml of filtered seawater for 22 to 24 hours. The assays were repeated for confirmation. There were two sets of controls, a blank control consisting of 3 tubes of seawater only, and DMSO control consisting of the equivalent dilution series with DMSO without compound). For the compounds, there were 3 tubes of each for each test concentration. The assay was initiated by addition of barnacle naupliar in 50 μl of seawater. After 22 to 24 hours of incubation at 25-27° C. solutions containing test animals were transferred to a Bogorov tray and scored as living or dead. Moribund larvae were scored as dead. Results were confirmed by repeating the assay. Data were combined and the concentration that caused 50% mortality (LD50) was calculated by probit analysis using a basic computer program (Libermann, 1983). If data were not appropriate for probit analysis, the LD50 was estimated from graphed data.

[9] = test system: marine bacteria strain S28; assay: disc inhibition assay, strain S28; assay type: cell-based, Arthrobacter protophormial; settings: for zone of inhibition: strain 28, 50 μg of compound per disc
In short: as §1

[10] = test system: cyprids of Balanus amphitrite; assay: barnacle settlement assay; assay type: in vivo; settings: Amphibalanus amphitrite, 24 h, concentration that caused 50% settlement inhibition, 24 hours, cyprids
Protocol: as §2, §3
Barnacle settlement assays were based on methodology from Rittschof et al. (1992). Barnacle larvae from field-collected adults were reared on an algal mixture of 1:1 v/v of Tetraselmis suecica and Chaetoceros muelleri at 25° C., at approximately 5×10^5 cells per ml density. On this regime, larvae metamorphose to cyprids in 5 days. These cyprids were aged at 4° C. for 2-3 days, and 45-70% settlement after 24 hours (Willemsen et al., 1998).
Settlement tests were conducted in 7 ml neutral glass vials (Samco® T1 03N1) 34 mm by 23 mm diameter, with 20-40 cyprids per well. Test solutions were made up to twice the required final concentration. 0.5 ml of test solution was added into each well, and cyprids were transferred into each well in 0.5 ml of seawater. Assays were done in triplicate. As before, there were two sets of controls, a blank control consisting 3 tubes of seawater only, and DMSO control consisting of the equivalent dilution series with DMSO without compound. After 24 hours, larvae that had attached and metamorphosed were enumerated and the result expressed as percentage settlement. Larvae not attached were scored as not settled. The assays were repeated and the concentration that caused 50% settlement inhibition (ED50) was determined by pro bit analysis using a basic computer program (Lieberman, 1983), or by estimation from graphed data.

[11] = test system: marine bacteria strain S27; assay: disc inhibition assay, strain S27; assay type: cell-based, Tenacibaculum lutimaris; settings: for zone of inhibition at 50 µg/disc: Tenacibaculum lutimaris, S27, 24 h
In short: as §1

[12] = test system: marine bacteria strain S10; assay: disc inhibition assay, strain S10; assay type: cell-based, Halobacillus trueperi; settings: for zone of inhibition: strain 10, 50 μg of compound per disc
In short: as §1

[13] = test system: marine bacteria strain S18; assay: disc inhibition assay, strain S18; assay type: cell-based, Microbacterium esteraromaticum; settings: for zone of inhibition: strain 18, 50 μg of compound per disc
[14] = test system: marine bacteria strain S3; assay: disc inhibition assay, strain S3; assay type: cell-based, Erythrobacter aquimaris; settings: for zone of inhibition at 50 µg/disc: Qipengyuania aquimaris, S3, 24 h
In short: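 Disc inhibition assay against a marine bacterial strain isolated from fouling communities in Singapore coastal waters. The strain was grown in marine broth and swabbed over Marine Agar plates as a lawn. 6 mm sterile discs loaded with compound in DMSO, or DMSO controls, were placed on the plates and incubated overnight in the dark at 35° C.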

[15] = test system: marine bacteria strain S14; assay: disc inhibition assay, strain S14; assay type: cell-based, Vibrio probioticus; settings: strain 14, 50 μg of compound per disc
[16] = Table 3(a), read-out: ED50 (the source's name)

Compound | zone of inhibition [1] | zone of inhibition [4] | zone of inhibition [5] | zone of inhibition [6] | LD50 [8] | zone of inhibition [9] | IC50 [10, 16] | zone of inhibition [12] | zone of inhibition [13] | zone of inhibition [15] | zone of inhibition [3] | further results
O=C(Cc1ccccc1)N1CCC(O)(c2ccccc2)CC1 [Compound 10.4] | − | − | − | − | > 50 µg/mL | − | 15 µg/mL (≈ 50.8 µM) | − | − | − |  | zone of inhibition at 50 µg/disc ([2]; strain 9, 50 μg of compound per disc, read-out: zone of inhibition): 2 to 5 mm; zone of inhibition at 50 µg/disc ([3]; Pseudoalteromonas piscicida, S16, 24 h, read-out: zone of inhibition): 2 to 5 mm; zone of inhibition ([7]; strain 29, 50 μg of compound per disc): −; zone of inhibition at 50 µg/disc ([11]; strain 27, 50 μg of compound per disc, read-out: zone of inhibition): 2 to 5 mm; zone of inhibition at 50 µg/disc ([14]; strain 3, 50 μg of compound per disc, read-out: zone of inhibition): 2 to 5 mm
CCCCC(CCCC)C(=O)N(C)C [Compound 12.3] | − | − | − | − | > 50 µg/mL | − | 2.76 µg/mL (≈ 13.8 µM) | − | − | − | − | zone of inhibition ([2]; strain 9, 50 μg of compound per disc): −; zone of inhibition at 50 µg/disc ([7]; strain 29, 50 μg of compound per disc, read-out: zone of inhibition): 2 to 5 mm; zone of inhibition ([11]; strain 27, 50 μg of compound per disc): −; zone of inhibition ([14]; strain 3, 50 μg of compound per disc): −
CN(C)C(=O)C(CCN1CCC(O)(c2ccc(Cl)cc2)CC1)(c1ccccc1)c1ccccc1 [LOP, loperamide, reference compound] | − |  |  |  | 1.56 µg/mL |  |  |  |  | − | − | zone of inhibition at 50 µg/disc [2]: 5 to 10 mm; zone of inhibition at 50 µg/disc ([4]; Guptibacillus algicola, S4, 24 h): 5 to 10 mm; zone of inhibition at 50 µg/disc ([5]; Bacillus, S30, 24 h): 2 to 5 mm; zone of inhibition at 50 µg/disc ([6]; Gordonia terrae, S17, 24 h): 5 to 10 mm; zone of inhibition at 50 µg/disc [7]: 5 to 10 mm; zone of inhibition at 50 µg/disc ([9]; Arthrobacter, S28, 24 h): 5 to 10 mm; IC50 ([10]; read-out: ED50, Table 3(a)): 0.37 µg/mL (≈ 0.776 µM); zone of inhibition at 50 µg/disc [11]: 5 to 10 mm; zone of inhibition at 50 µg/disc ([12]; Halobacillus trueperi, S10, 24 h): 5 to 10 mm; zone of inhibition at 50 µg/disc ([13]; Microbacterium esteraromaticum, S18, 24 h): > 10 mm; zone of inhibition at 50 µg/disc [14]: > 10 mm
